Measured values published in US8772500B2, “TRPV3 modulators” (AbbVie Inc., priority 2011, dated 2014).
Read-outs that look alike come from different tables or passages of the source.

How the values were obtained:
[1] = In vitro human microsomal stability assay; type: in vitro ADME; details: human, 0.5 h, 0.5 μM, pH 7.4
How it was run: (§1)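 Liver microsomes: Sprague-Dawley rat for rat assay, human for human assay; 37 °C; NADPH cofactor, also spiked into time-zero plates.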

[2] = In vitro rat microsomal stability assay; type: in vitro ADME, rat (Sprague-Dawley); details: Sprague-Dawley, rat, 0.5 h, 0.5 μM, pH 7.4
How it was run: as §1

human TRPV3 = biological target: T1, human TRPV3 (Homo sapiens, UniProt Q8NET8); experiment: In vitro antagonism of recombinant human TRPV3 activation (FLIPR Tetra calcium assay, 2-APB as agonist); type: cell-based; details: HEK293 cells stably expressing human TRPV3, 2-APB 80 μM
T1 construct: expressed in transfected cells
T1 sequence (Q8NET8 1-790): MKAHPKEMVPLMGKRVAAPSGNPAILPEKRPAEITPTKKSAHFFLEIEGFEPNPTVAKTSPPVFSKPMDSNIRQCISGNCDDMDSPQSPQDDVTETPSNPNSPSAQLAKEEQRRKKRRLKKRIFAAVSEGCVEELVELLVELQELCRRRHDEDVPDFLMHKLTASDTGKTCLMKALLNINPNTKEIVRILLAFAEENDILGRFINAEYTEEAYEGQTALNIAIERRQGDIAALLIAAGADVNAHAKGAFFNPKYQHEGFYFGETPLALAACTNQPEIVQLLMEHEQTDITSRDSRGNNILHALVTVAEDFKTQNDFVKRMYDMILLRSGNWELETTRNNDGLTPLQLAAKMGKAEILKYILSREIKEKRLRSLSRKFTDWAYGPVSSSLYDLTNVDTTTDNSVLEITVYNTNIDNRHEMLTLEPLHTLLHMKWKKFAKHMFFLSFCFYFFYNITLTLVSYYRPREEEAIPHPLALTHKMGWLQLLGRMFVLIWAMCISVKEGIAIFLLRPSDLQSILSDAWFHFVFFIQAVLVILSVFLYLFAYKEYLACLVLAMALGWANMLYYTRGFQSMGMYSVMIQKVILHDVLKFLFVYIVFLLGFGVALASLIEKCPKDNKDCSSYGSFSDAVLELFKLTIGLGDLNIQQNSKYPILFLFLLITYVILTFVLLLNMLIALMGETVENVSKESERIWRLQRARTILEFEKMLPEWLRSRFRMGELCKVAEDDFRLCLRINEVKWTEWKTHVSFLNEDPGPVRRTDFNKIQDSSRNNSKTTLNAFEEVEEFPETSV
How it was run: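 Readout is FLIPR fluorescence, max minus min as percent of uninhibited 2-APB response, giving IC50 (usually mean of ≥2 runs). Stable human TRPV3 HEK293 cells, Calcium-4 dye-loaded, got test compound then, three minutes later, 80 μM 2-APB (EC80); run length 10 min.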

[3] = range class, read-out: IC50 (reported range)

Row | SMILES | HUMAN MICROSOMAL STABILITY (% REMAINING AFTER 30 MINUTES) [1] [%] | RAT MICROSOMAL STABILITY (% REMAINING AFTER 30 MINUTES) [2] [%] | IC50 (human TRPV3; [3]) [nM] | IC50 (human TRPV3; mostly average of n≧2, read-out: IC50 (actual measured value, shown parenthetically)) [nM]
1 | OC(c1ccccn1)C1(c2ccc(F)c(F)c2)CCC1 (stereo not shown) [Example 4, [1-(3,4-difluorophenyl)cyclobutyl](pyridin-2-yl)methanol] | 19 | 4.2 | 50 to 500 | 
2 | OC(c1ccccn1)C1(c2ccccc2F)CCC1 (stereo not shown) [Example 1, [1-(2-fluorophenyl)cyclobutyl](pyridin-2-yl)methanol] | 0.38 | 0.48 | 1100 to 5000 | 
3 | OC(c1ccccn1)C1(c2ccccc2C(F)(F)F)CCC1 (stereo not shown) [Example 5, pyridin-2-yl{1-[2-(trifluoromethyl)phenyl]cyclobutyl}methanol] | 0.27 | 0.06 | 5100 to 20000 | 
4 | OC(C1CCc2cccnc21)C1(c2ccc(Cl)c(Cl)c2)CCC1 (stereo not drawn) [Example 168, (syn)-[1-(3,4-dichlorophenyl)cyclobutyl][6,7-dihydro-5H-cyclopenta[b]-pyridin-7-yl]methanol] | 5.6 | <0.01 | 5100 to 20000 | 
5 | CC(C)(C)OC(=O)N1CC(c2ccc(C(F)(F)F)cc2)(C(O)c2ccccn2)C1 (stereo not shown) [Example 153, tert-butyl 3-[hydroxy(pyridin-2-yl)methyl]-3-[4-(trifluoromethyl)phenyl]-azetidine-1-carboxylate] | 49 | 21 | 5100 to 20000 | 
6 | O[C@H](c1ccccn1)C1(c2ccc(Cl)c(Cl)c2)CCC1 [Example 26, (S)-[1-(3,4-dichlorophenyl)cyclobutyl](pyridin-2-yl)methanol] | 6.3 | 1.0 | 50 to 500 | 
7 | COC1CC(c2ccc(Cl)c(Cl)c2)(C(O)c2ccccn2)C1 [Example 150, (S)-[cis-1-(3,4-dichlorophenyl)-3-methoxycyclobutyl](pyridin-2-yl)methanol] | 42 | <0.01 | 1100 to 5000 | 
8 | N[C@@H]1CCC[C@H]1[C@@H](O)C1(c2ccc(Cl)cc2)CCC1 [Example 224, (R)-[(1R,2R)-2-aminocyclopentyl][1-(4-chlorophenyl)cyclobutyl]methanol] | >85 | 70 | 1100 to 5000 | 
9 | OC(c1ccccn1)C1(c2cccc(C(F)(F)F)c2)CCC1 (stereo not shown) [Example 6, pyridin-2-yl{1-[3-(trifluoromethyl)phenyl]cyclobutyl}methanol] | 1.2 | 2.3 | 50 to 500 | 
10 | OC(c1ccccn1)C1(c2ccc(C(F)(F)F)cc2)CC(F)(F)C1 (stereo not shown) [Example 133, {3,3-difluoro-1-[4-(trifluoromethyl)phenyl]cyclobutyl}(pyridin-2-yl)-methanol] | 73 | 61 | 50 to 500 | 
11 | OC1CC(c2ccnc(C(F)(F)F)c2)(C(O)c2ccccn2)C1 [Example 305, cis-3-[(S)-hydroxy(pyridin-2-yl)methyl]-3-[2-(trifluoromethyl)pyridin-4-yl]-cyclobutanol] | 63 | 49 | 50 to 500 | 
12 | O[C@H](c1ccccn1)C1(c2cc(C(F)(F)F)ccn2)CC(F)(F)C1 [Example 126, (S)-{3,3-difluoro-1-[4-(trifluoromethyl)pyridin-2-yl]cyclobutyl}(pyridin-2-yl)methanol] | 21 | 7.7 | 501 to 1000 | 
13 | OC(c1ccccn1)C1(c2cccc(F)c2)CCCO1 (stereo not drawn) [Example 100, (anti)-[2-(3-fluorophenyl)tetrahydrofuran-2-yl](pyridin-2-yl)methanol] | 26 | 2.9 | 501 to 1000 | 
14 | OC(c1ccccn1)C1(C2=CCCC(C(F)(F)F)C2)CCC1 (stereo not shown) [Example 261, pyridin-2-yl{1-[5-(trifluoromethyl)cyclohex-1-en-1-yl]cyclobutyl}methanol] | 0.01 | <0.01 | 1100 to 5000 | 
15 | CN(C)N=C1CC(c2ccc(OC(F)(F)F)cc2)([C@H](O)c2ccccn2)C1 (stereo partly drawn) [Example 267, (S)-{3-(dimethylhydrazinylidene)-1-[4-(trifluoromethoxy)phenyl]-cyclobutyl}(pyridin-2-yl)methanol] | 64 | 10 | 1100 to 5000 | 
16 | OC(c1ccccn1)C1(c2ccccc2OC(F)(F)F)CCCO1 (stereo not drawn) [Example 96, (anti)-pyridin-2-yl{2-[2-(trifluoromethoxy)phenyl]tetrahydrofuran-2-yl}-methanol] | 0.68 | 0.15 | 1100 to 5000 | 
17 | OC(c1ccccn1)C1(C2=COCCC2)CCC1 (single isomer, unassigned) [Example 270, [1-(3,4-dihydro-2H-pyran-5-yl)cyclobutyl](pyridine-2-yl)methanol] | 17 | 0.48 | 1100 to 5000 | 3940
18 | OC(c1ccccn1)C1(c2ccc(Cc3ccccc3)cc2)CCC1 (stereo not shown) [Example 25, [1-(4-benzylphenyl)cyclobutyl](pyridin-2-yl)methanol] | 21 | 1.3 | 1100 to 5000 | 
19 | OC(c1ccccn1)C1(c2cccc(C(F)(F)F)c2)CCCO1 (stereo not drawn) [Example 106, (anti)-pyridin-2-yl{2-[3-(trifluoromethyl)phenyl]tetrahydrofuran-2-yl}-methanol] | 3.9 | 1.6 | 50 to 500 | 
20 | OC1CC(c2ccc(Cl)c(Cl)c2)(C(O)c2ccccn2)C1 (single isomer, unassigned) [Example 119] | >85 | 69 | 501 to 1000 | 
21 | OC(c1ccccn1)C1(C2CCC(C(F)(F)F)CC2)CCC1 (stereo not shown) [Example 280, pyridin-2-yl{1-[4-(trifluoromethyl)cyclohexyl]cyclobutyl}methanol] | 9.0 | <0.01 | 1100 to 5000 | 
22 | OC1CC(c2ccc(C(F)(F)F)cc2)(C(O)c2ccccn2)C1 [Example 201, trans-3-[(S)-hydroxy(pyridin-2-yl)methyl]-3-[4-(trifluoromethyl)phenyl]-cyclobutanol] | 73 | >85 | 5100 to 20000 | 
23 | O[C@H](c1ccccn1)C1(c2ccc(C(F)(F)F)cc2)CCC1 [Example 28, (S)-pyridin-2-yl{1-[4-(trifluoromethyl)phenyl]cyclobutyl}methanol] | 12 | 13 | 50 to 500 | 
